Measured values taken from patent US12509452B2, “Substituted-isoxazoline-containing aromatic compound, preparation method therefor, herbicidal composition and use thereof” (QINGDAO KINGAGROOT CHEMICAL COMPOUND CO., LTD., priority 2019, dated 2025).

Key:
Assay in all cases: weeding effect in post-emergence stage
Format in all cases: in vivo
[1] = test system: Rorippa indica
How it was run: (§1)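 Weeds grown in soil-filled pots in a greenhouse, sprayed at the 2-3 leaf stage (2 weeks after sowing) with compound in acetone/Tween 80 plus methyl oleate EC (1.5 L/ha) at 500 to 7.5 g a.i./ha. Fresh-weight growth control assessed 3 weeks later, triplicate means, scored on a 0-5 scale.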

[2] = test system: Alopecurus japonicus
How it was run: as §1

[3] = test system: Beckmannia syzigachne
How it was run: as §1

[4] = test system: Conyza japonica
How it was run: as §1

Structure (SMILES) | weeding effect in post-emergence stage, Rorippa indica (activity level) ([1]; dose 15 g a.i./ha) | weeding effect in post-emergence stage, Rorippa indica (activity level) ([1]; dose 125 g a.i./ha) | weeding effect in post-emergence stage, Alopecurus japonicus (activity level) ([2]; dose 15 g a.i./ha) | weeding effect in post-emergence stage, Alopecurus japonicus (activity level) ([2]; dose 125 g a.i./ha) | weeding effect in post-emergence stage, Beckmannia syzigachne (activity level) ([3]; dose 15 g a.i./ha) | weeding effect in post-emergence stage, Beckmannia syzigachne (activity level) ([3]; dose 125 g a.i./ha) | weeding effect in post-emergence stage, Conyza japonica (activity level) ([4]; dose 15 g a.i./ha) | weeding effect in post-emergence stage, Conyza japonica (activity level) ([4]; dose 125 g a.i./ha) | weeding effect in post-emergence stage, Rorippa indica (activity level) ([1]; dose 7.5 g a.i./ha) | weeding effect in post-emergence stage, Alopecurus japonicus (activity level) ([2]; dose 7.5 g a.i./ha) | weeding effect in post-emergence stage, Beckmannia syzigachne (activity level) ([3]; dose 7.5 g a.i./ha) | weeding effect in post-emergence stage, Conyza japonica (activity level) ([4]; dose 7.5 g a.i./ha)
CCC[C@@]1(C(=O)OCC)CC(c2cc(-n3c(=O)n(C)c(=S)n(C)c3=O)c(F)cc2Cl)=NO1 [4(S)] | 5 (Level 5: growth control rate is above 85%) | 5 (Level 5: growth control rate is above 85%) | 5 (Level 5: growth control rate is above 85%) | 5 (Level 5: growth control rate is above 85%) | 5 (Level 5: growth control rate is above 85%) | 5 (Level 5: growth control rate is above 85%) | 5 (Level 5: growth control rate is above 85%) | 5 (Level 5: growth control rate is above 85%) | – | – | – | –
CCOC(=O)[C@@]1(C2CC2)CC(c2cc(-n3c(=O)n(C)c(=S)n(C)c3=O)c(F)cc2Cl)=NO1 [17(S)] | – | 5 (Level 5: growth control rate is above 85%) | – | 5 (Level 5: growth control rate is above 85%) | – | 5 (Level 5: growth control rate is above 85%) | – | 5 (Level 5: growth control rate is above 85%) | – | – | – | –
CCOC(=O)[C@]1(CBr)CC(c2cc(-n3c(=O)n(C)c(=S)n(C)c3=O)c(F)cc2Cl)=NO1 [31(S)] | 5 (Level 5: growth control rate is above 85%) | – | 5 (Level 5: growth control rate is above 85%) | – | 5 (Level 5: growth control rate is above 85%) | – | 5 (Level 5: growth control rate is above 85%) | – | – | – | – | –
CCOC(=O)[C@]1(C(F)(F)F)CC(c2cc(-n3c(=O)n(C)c(=S)n(C)c3=O)c(F)cc2Cl)=NO1 [33(S)] | 5 (Level 5: growth control rate is above 85%) | – | 5 (Level 5: growth control rate is above 85%) | – | 5 (Level 5: growth control rate is above 85%) | – | 5 (Level 5: growth control rate is above 85%) | – | – | – | – | –
CCOC(=O)[C@@]1(CCF)CC(c2cc(-n3c(=O)n(C)c(=S)n(C)c3=O)c(F)cc2Cl)=NO1 [34(S)] | – | 5 (Level 5: growth control rate is above 85%) | – | 5 (Level 5: growth control rate is above 85%) | – | 5 (Level 5: growth control rate is above 85%) | – | 5 (Level 5: growth control rate is above 85%) | – | – | – | –
CCOC(=O)COC[C@]1(C(=O)OCC)CC(c2cc(-n3c(=O)n(C)c(=S)n(C)c3=O)c(F)cc2Cl)=NO1 [54(S)] | 5 (Level 5: growth control rate is above 85%) | – | 5 (Level 5: growth control rate is above 85%) | – | 5 (Level 5: growth control rate is above 85%) | – | 5 (Level 5: growth control rate is above 85%) | – | – | – | – | –
COC(=O)[C@@]1(c2ccccc2)CC(c2cc(-n3c(=O)n(C)c(=S)n(C)c3=O)c(F)cc2Cl)=NO1 [56(S)] | 5 (Level 5: growth control rate is above 85%) | – | 5 (Level 5: growth control rate is above 85%) | – | 5 (Level 5: growth control rate is above 85%) | – | 5 (Level 5: growth control rate is above 85%) | – | – | – | – | –
COC(=O)[C@]1(Cc2ccccc2)CC(c2cc(-n3c(=O)n(C)c(=S)n(C)c3=O)c(F)cc2Cl)=NO1 [59(S)] | 5 (Level 5: growth control rate is above 85%) | – | 5 (Level 5: growth control rate is above 85%) | – | 5 (Level 5: growth control rate is above 85%) | – | 5 (Level 5: growth control rate is above 85%) | – | – | – | – | –
CCOC(=O)[C@]1(CC)CC(c2cc(-n3c(=O)cc(C(F)(F)F)n(C)c3=O)c(F)cc2Cl)=NO1 [105(S)] | – | 5 (Level 5: growth control rate is above 85%) | – | 5 (Level 5: growth control rate is above 85%) | – | 5 (Level 5: growth control rate is above 85%) | – | 5 (Level 5: growth control rate is above 85%) | – | – | – | –
CCOC(=O)[C@@]1(C2CC2)CC(c2cc(-n3c(=O)cc(C(F)(F)F)n(C)c3=O)c(F)cc2Cl)=NO1 [119(S)] | – | 5 (Level 5: growth control rate is above 85%) | – | 5 (Level 5: growth control rate is above 85%) | – | 5 (Level 5: growth control rate is above 85%) | – | 5 (Level 5: growth control rate is above 85%) | 4 (Level 4: growth control rate is greater than or equal to 60% and less than 85%) | 5 (Level 5: growth control rate is above 85%) | 5 (Level 5: growth control rate is above 85%) | 4 (Level 4: growth control rate is greater than or equal to 60% and less than 85%)
CCOC(=O)[C@@]1(C2CCC2)CC(c2cc(-n3c(=O)cc(C(F)(F)F)n(C)c3=O)c(F)cc2Cl)=NO1 [126(S)] | 5 (Level 5: growth control rate is above 85%) | – | 5 (Level 5: growth control rate is above 85%) | – | 5 (Level 5: growth control rate is above 85%) | – | 5 (Level 5: growth control rate is above 85%) | – | – | – | – | –
COC(=O)[C@@]1(F)CC(c2cc(-n3c(=O)cc(C(F)(F)F)n(C)c3=O)c(F)cc2Cl)=NO1 [129(S)] | 5 (Level 5: growth control rate is above 85%) | – | 5 (Level 5: growth control rate is above 85%) | – | 5 (Level 5: growth control rate is above 85%) | – | 5 (Level 5: growth control rate is above 85%) | – | – | – | – | –
CCOC(=O)[C@]1(CF)CC(c2cc(-n3c(=O)cc(C(F)(F)F)n(C)c3=O)c(F)cc2Cl)=NO1 [132(S)] | 5 (Level 5: growth control rate is above 85%) | – | 5 (Level 5: growth control rate is above 85%) | – | 5 (Level 5: growth control rate is above 85%) | – | 5 (Level 5: growth control rate is above 85%) | – | – | – | – | –
CCOC(=O)[C@]1(C(F)F)CC(c2cc(-n3c(=O)cc(C(F)(F)F)n(C)c3=O)c(F)cc2Cl)=NO1 [134(S)] | 5 (Level 5: growth control rate is above 85%) | – | 5 (Level 5: growth control rate is above 85%) | – | 5 (Level 5: growth control rate is above 85%) | – | 5 (Level 5: growth control rate is above 85%) | – | – | – | – | –
CCOC(=O)[C@]1(C(F)(F)F)CC(c2cc(-n3c(=O)cc(C(F)(F)F)n(C)c3=O)c(F)cc2Cl)=NO1 [135(S)] | 5 (Level 5: growth control rate is above 85%) | – | 5 (Level 5: growth control rate is above 85%) | – | 5 (Level 5: growth control rate is above 85%) | – | 5 (Level 5: growth control rate is above 85%) | – | – | – | – | –
CCOC(=O)[C@@]1(CCF)CC(c2cc(-n3c(=O)cc(C(F)(F)F)n(C)c3=O)c(F)cc2Cl)=NO1 [136(S)] | 5 (Level 5: growth control rate is above 85%) | – | 5 (Level 5: growth control rate is above 85%) | – | 5 (Level 5: growth control rate is above 85%) | – | 5 (Level 5: growth control rate is above 85%) | – | – | – | – | –
CCOC(=O)[C@@]1(CO)CC(c2cc(-n3c(=O)cc(C(F)(F)F)n(C)c3=O)c(F)cc2Cl)=NO1 [142(S)] | 5 (Level 5: growth control rate is above 85%) | – | 5 (Level 5: growth control rate is above 85%) | – | 5 (Level 5: growth control rate is above 85%) | – | 5 (Level 5: growth control rate is above 85%) | – | – | – | – | –
CCOC(=O)[C@@]1(C=O)CC(c2cc(-n3c(=O)cc(C(F)(F)F)n(C)c3=O)c(F)cc2Cl)=NO1 [152(S)] | 5 (Level 5: growth control rate is above 85%) | – | 5 (Level 5: growth control rate is above 85%) | – | 5 (Level 5: growth control rate is above 85%) | – | 5 (Level 5: growth control rate is above 85%) | – | – | – | – | –
